The nature of series [1]: Intrinsic clearance in human liver microsomes. The format is ADME, Microsome. The following applies: read-out: CLH. On the technique in general: Liver microsomes are a subcellular fraction often used to study metabolism.
Series [2] in a line: Aqueous solubility of the compound at pH 7.4. The format is physicochemical.
Series [3] is described as follows: Aqueous solubility of the compound at pH 1. The series is classed as physicochemical.
The nature of series [4]: Aqueous solubility of the compound at pH 6.5. The format is physicochemical.

Values after ≈ are worked out from the molar mass of the structure shown.

By solubility is commonly meant the concentration that dissolves in the medium under given conditions. A lower solubility goes with a poorly soluble substance.

For the molecule `OC(CC1c2ccccc2-c2cncn21)C1CCCCC1` (stereo unspecified), in series [1], the predicted hepatic clearance is 18 mL/min/kg.

For the molecule `OC(CC1c2c(F)cccc2-c2cncn21)C1CCCCC1` (stereo unspecified), the predicted hepatic clearance in series [1] is 18.9 mL/min/kg.

For the molecule `O[C@@H](C[C@H]1c2c(F)cccc2-c2cncn21)[C@H]1CC[C@H](O)CC1`, the predicted hepatic clearance in series [1] was 6.2 mL/min/kg.

With `O=C(N[C@H]1CC[C@H](C(O)CC2c3ccccc3-c3cncn32)CC1)c1ccccc1` (stereo partly specified), the solubility in series [2] was 25 µM (≈ 10 µg/mL); in series [3] it was 363 µM (≈ 146 µg/mL); in series [4], 22 µM (≈ 8.83 µg/mL).

For the molecule `OC1CCC(C(O)CC2c3c(F)cccc3-c3cncn32)CC1` (stereo unspecified), the solubility is 316 µM (≈ 100 µg/mL) in series [2], 353 µM (≈ 112 µg/mL) in series [3] and 329 µM (≈ 104 µg/mL) in series [4]. For the same molecule, the predicted hepatic clearance in series [1] was 4.06 mL/min/kg.

As for `O[C@H](C[C@H]1c2c(F)cccc2-c2cncn21)[C@H]1CC[C@@H](O)CC1`, in series [1], the predicted hepatic clearance is 18.5 mL/min/kg.

Source of the values: ChEMBL document CHEMBL4364294 (J Med Chem, 2019).
